Results from US20180238860A1, “INDIVIDUAL METHOD PREDICTIVE OF THE DNA-BREAKING GENOTOXIC EFFECTS OF CHEMICAL OR BIOCHEMICAL AGENTS” (priority 2015, published 2018).

Columns and labels:
Assay type in all cases: cell-based, human
MRC9 (control cells) = assay: pH2AX foci immunofluorescence 24 h after contacting, MRC9 control fibroblasts; details: for pH2AX(24 h) + 2xSEM / pH2AX(24 h): MRC9; for pH2AX(24 h): 24 hours after contacting
Experimental: (§1) the cells are fixed in 3% paraformaldehyde and 2% sucrose for 15 minutes at ambient temperature and permeabilized in 20 mM HEPES buffer solution (4-(2-hydroxyethyl)-1-piperazine ethane sulfonic acid) at pH 7.4, 50 mM NaCl, 3 mM MgCl2, 300 mM sucrose, 0.5% Triton X-100 (a non-ionic surfactant having the formula t-Oct-C6H4-(OCH2CH2)×OH where x=9-10, CAS No. 9002-93-1, supplied for example by Sigma Aldrich) for 3 minutes. The glass coverslips are then washed in phosphate buffer saline (known as the acronym PBS) before immunological staining. The incubation took place for 40 min at 37° C. in PBS supplemented with 2% bovine serum albumin (known as the acronym BSA or fraction V, supplied for example by Sigma Aldrich) and was followed by a wash with PBS. Anti-pH2AX primary antibodies are used at a concentration of 1:800. The incubations with anti-mouse FITC or anti-rabbit TRITC secondary antibodies (1:100, supplied by Sigma Aldrich) were performed at 37° C. in 2% BSA for 20 minutes. Glass coverslips were treated with Vectashield™ containing DAPI (4,6-Diamidino-2-phenylindole) to label the nucleus. Staining with DAPI also makes it possible, indirectly, to determine the number of cells in phase G1 (nuclei with homogenous DAPI staining), in phase S (nuclei with numerous pH2AX foci), in phase G2 (nuclei with heterogeneous DAPI staining) and metaphases (visible chromosomes).
Commercial MRC9 control fibroblasts were amplified according to the recommendations of the supplier (SIGMA-ALDRICH) until the number of cells sought was obtained. After obtaining a sufficient number of cells (generally after one to 3 weeks), the first experiments were conducted using the process according to the invention. The cells were inoculated on glass coverslips in Petri dishes. A portion of these coverslips was then contacted with the medium under test comprising 5FU at a given concentration presented in table 2 hereinafter.
(§2) After contacting with 5FU at a given concentration, the cells were stored in the culture incubator at 37° C. 24 hours after contacting with 5FU at a given concentration as presented in table 2, the mean number of nuclear foci obtained with the marker pH2AX was acquired. The acquisition of the results was carried out using these coverslips on an immunofluorescence microscope (Olympus model). The reading was performed directly by counting the foci obtained with the marker pH2AX on at least 50 cells in G0/G1 for each point or using dedicated image analysis software (imageJ).
In order to obtain results of sufficient statistical reliability to serve as a basis for diagnosis, 3 independent series of experiments were performed. The mean and standard errors of the mean (“SEM” or σ) of each of the numbers of foci acquired after 24 hours of contacting the control cells with 5FU at a given concentration was calculated and presented in table 2.

GM02718 cells = assay: pH2AX foci immunofluorescence 24 h after contacting, GM02718 cell line; details: for pH2AX(24 h) + 2xSEM / pH2AX(24 h): GM002718; for pH2AX(24 h): 24 hours after contacting
Experimental: as §1
The cell line GM02718 was amplified according to the recommendations of the supplier (Coriell Institute) until the number of cells sought was obtained.
(§3) After obtaining a sufficient number of cells (generally after one to 3 weeks), the first experiments were conducted using the process according to the invention. The GM02718, or 03HLS, line cells were inoculated on glass coverslips in Petri dishes. A portion of these coverslips was then contacted with 5FU at a concentration of 30 μM. By way of verification, a further portion of these coverslips was contacted with 5FU at a given concentration (see table 2, see FIG. 2 (B) for the cell line GM02718, respectively FIG. 2 (C) for the cell line 03HLS).
as §2
(§4) In order to obtain results of sufficient statistical reliability to serve as a basis for diagnosis, 3 independent series of experiments were performed. The mean and standard errors of the mean (“SEM” or σ) of each of the numbers of foci acquired after 24 hours of contacting the control cells with 5FU at a given concentration was calculated and presented in table 2 and in FIG. 2 (B) for the cell line GM02718, respectively FIG. 2 (C) for the cell line 03HLS.

03HLS cells = assay: pH2AX foci immunofluorescence 24 h after contacting, 03HLS patient skin cell line; details: for pH2AX(24 h): 24 hours after contacting
Experimental: as §1
For the line 03 HLS, a skin cell sample from a patient was sampled by biopsy via the “skin punch” method known to those skilled in the art. The cell sample was then placed in DMEM medium+20% sterile fetal calf serum. The cell sample was then transferred without delay to a specialized laboratory, so that the sample remained not more than 38 hours at ambient temperature.
On receipt, the cell sample from the biopsy was established in the form of an amplifiable 03HLS cell line according to a procedure well known to culture laboratories and those skilled in the art: using particularly the trypsin dispersion, the cells are once again diluted in replenished medium and so on until the number of cells sought is obtained.
as §3, §2, §4

HMEC cells [1] = assay: pH2AX foci 24 h after contacting, Table 4 lower part (HMEC endothelial cells); details: line cell blank (below Hasp), 24 hours after contacting
Experimental: (§5) In one embodiment, on receipt, the tissue sample (typically the biopsy) is established in the form of an amplifiable cell line without a viral or chemical transformation agent according to an ancillary procedure well known to culture laboratories, as underlined by the publication of Elkind et al. “The radiobiology of cultured mammalian cell”, Gordon and Breach (1967). Once the number of cells is sufficient (typically after 1 to 3 weeks), the first experiments are carried out using the process according to the invention. A cell sample is prepared: The cells are inoculated on glass coverslips in Petri dishes. A portion of these coverslips are contaminated with metals or pesticides or any other DNA-breaking chemical or biochemical agent at different concentrations. A further portion is not contaminated; it represents the spontaneous state. During contamination, the cells remain in the culture incubator at 37° C.
For the contaminated cells, characteristics are acquired corresponding to the state after an incubation time with the DNA-breaking chemical or biochemical agent. Said characteristics are represented by foci corresponding to the marker pH2AX. The cells on glass coverslips are then fixed, lysed and hybridized. The following procedure, known per se (Bodgi et al, “A single formula to describe radiation-induced protein relocalization: towards a mathematical definition of individual radiosensitivity”, J Theor Biol. 21 p 333:135-45.2013):
as §1
The results are acquired using these coverslips on an immunofluorescence microscope (Olympus model for example). The reading may be direct (typically by counting the foci on at least 50 cells in G0/G1 for each point) or using dedicated image analysis software, or on an automated microscope; preferably the software or automated microscope methods are calibrated with manual determinations.
(§6) The tables hereinafter summarize the results of numerous experiments which were carried out as described in the “Detailed description” section above.
(§7) In tables 3 and 4, “pH2AX” corresponds to the mean number of nuclear foci obtained with the marker pH2AX, 24 hours after contacting the cell sample with the chemical agent at the concentration C (NpH2AX(24 h, C)), and where “Micronuclei” corresponds to the mean number of micronuclei observed per 100 cells 24 hours after contacting the cell sample with the chemical agent at the concentration C(NMN(24 h, C)).

HMEC cells [2] = assay: Micronuclei per 100 cells 24 h after contacting, Table 4 lower part (HMEC); details: line cell blank (below Hasp)
Experimental: as §5, §1
Counterstaining with DAPI (a DNA marker known to those skilled in the art) makes it possible to locate the nucleus to situate the cytoplasmic or nuclear location to quantify the micronuclei, which are complementary cell markers to the data on the foci.
as §6, §7

[3] = test system: pH2AX nuclear foci (DNA double-strand breaks); assay: Single toxicity scale: reference concentration Cref and risk group prediction from NpH2AX(24 h)
Experimental: (i) if the reference concentration has not previously been determined by the chemical or biochemical agent to be studied, a cell sample is prepared by dispersion and/or amplification of so-called reference cells (sensitivity group I); a plurality of concentrations within a broad concentration range of said breaking agent (said concentration range ranging for example from nM to mM) is applied for a predetermined period of time (preferably 24 hours) on this cell sample; pH2AX immunofluorescence is performed with DAPI counterstaining which also enables on the same cell sample the analysis of micronuclei for all the concentrations applied.
(ii) Either the mean number of nuclear foci observed with the marker pH2AX at the observation times t and at the concentration C (this mean number being referred to as NpH2AX(t, C)), or the mean number of micronuclei per 100 cells at the observation times t and at the concentration C (this mean number being referred to as NMN(t, C)), or the standard error a corresponding to the error committed on these respective measurements which must be performed on at least 50 nuclei once (Gaussian standard error) or 3 independent experiments of 50 nuclei (standard error of the mean).
(iii) The so-called reference concentration Cref is the concentration giving:
NpH2AX(24 h,Cref)+2σ=2 or indeed NMN(24 h,Cref)+2σ=2%;
If for the cell sample NpH2AX(24 h, Cref)<=2 or NMN(24 h, Cref)<=0.5%, preferably NMN(24 h, Cref)<=1% or even more preferentially NMN(24 h, Cref)<=2%, then the genotoxic risk is considered to be low or described as “Group I”
The experimental data presented in table 4 above were used to determine the reference concentration Cref particularly for Pb(NO3)2 (Cref<1 μM) and CdCl2 (Cref=10 μM).
Table 5 presents numerical examples of correspondence between the single toxicity scale according to the invention and the corresponding clinical signs.

`O=c1[nH]cc(F)c(=O)[nH]1` [5FU] was tested, and the “pH2AX(24 h) + 2xSEM” value (MRC9 (control cells); 5FU 1.00 μM) was 1.97 foci, the “pH2AX(24 h)” value (MRC9 (control cells); 5FU 1.00 μM) was 1.16 foci and the “pH2AX(24 h) + 2xSEM” value (MRC9 (control cells); 5FU 3.00 μM) was 1.93 foci. The “pH2AX(24 h)” value (MRC9 (control cells); 5FU 3.00 μM) was 1.38 foci, the “pH2AX(24 h) + 2xSEM” value (MRC9 (control cells); 5FU 10.00 μM) was 0.51 foci and the “pH2AX(24 h)” value (MRC9 (control cells); 5FU 10.00 μM) was 0.30 foci. For the same compound, the “pH2AX(24 h) + 2xSEM” value (MRC9 (control cells); 5FU 30.00 μM) was 2.01 foci, the “pH2AX(24 h)” value (MRC9 (control cells); 5FU 30.00 μM) was 1.18 foci and the “reference concentration Cref defined by NpH2AX(24 h, Cref)+2σ=2” value (MRC9 (control cells); control cell line MRC9) was 30 µM. For the same compound, the “pH2AX(24 h) + 2xSEM” value (GM02718 cells; 5FU 1.00 μM) was 3.32 foci, the “pH2AX(24 h)” value (GM02718 cells; 5FU 1.00 μM) was 2.70 foci and the “pH2AX(24 h) + 2xSEM” value (GM02718 cells; 5FU 3.00 μM) was 2.43 foci. The “pH2AX(24 h)” value (GM02718 cells; 5FU 3.00 μM) was 2.41 foci, the “pH2AX(24 h) + 2xSEM” value (GM02718 cells; 5FU 10.00 μM) was 3.87 foci and the “pH2AX(24 h)” value (GM02718 cells; 5FU 10.00 μM) was 2.96 foci. For the same compound, the “pH2AX(24 h) + 2xSEM” value (GM02718 cells; 5FU 30.00 μM) was 2.38 foci, the “pH2AX(24 h)” value (GM02718 cells; 5FU 30.00 μM) was 2.38 foci and the “number of pH2AX foci” value (GM02718 cells; GM02718, 5FU concentration of 30 μM, 24 h) was “approximately 2.38 foci”. For the same compound, the genotoxic risk group (GM02718 cells; cell line GM02718 at Cref 30 μM) was “group II”, the “pH2AX(24 h) + 2xSEM” value (03HLS cells; 03HLS, 5FU 1.00 μM) was 1.49 foci and the “pH2AX(24 h)” value (03HLS cells; 03HLS, 5FU 1.00 μM) was 1.40 foci. For the same compound, the “pH2AX(24 h) + 2xSEM” value (03HLS cells; 03HLS, 5FU 3.00 μM) was 2.26 foci, the “pH2AX(24 h)” value (03HLS cells; 03HLS, 5FU 3.00 μM) was 1.69 foci and the “pH2AX(24 h) + 2xSEM” value (03HLS cells; 03HLS, 5FU 10.00 μM) was 1.69 foci. The “pH2AX(24 h)” value (03HLS cells; 03HLS, 5FU 10.00 μM) was 1.63 foci, the “pH2AX(24 h) + 2xSEM” value (03HLS cells; 03HLS, 5FU 30.00 μM) was 2.59 foci and the “pH2AX(24 h)” value (03HLS cells; 03HLS, 5FU 30.00 μM) was 2.00 foci. The “number of pH2AX foci” value (03HLS cells; 03HLS, 5FU concentration of 30 μM, 24 h) was roughly 2.59 foci and the genotoxic risk group (03HLS cells; cell line 03HLS at Cref 30 μM) was “group II”.
Compound `[Cl][Cd][Cl]` [CdCl2] has a pH2AX (HMEC cells [1]; 10 μM) of 1.9 foci, a pH2AX (HMEC cells [1]; 30 μM) of 3.7 foci and a pH2AX (HMEC cells [1]; 100 μM) of 8.3 foci. The Micronuclei (HMEC cells [2]; 10 μM) was 3.5 per 100 cells, the Micronuclei (HMEC cells [2]; 30 μM) was 9 per 100 cells and the Micronuclei (HMEC cells [2]; 100 μM) was 12.25 per 100 cells. For the same compound, the “Reference concentration Cref” value ([3]; NpH2AX(24 h) < 2, determined from data of table 4) was 10 µM and the “Prediction based on algorithm: concentration above which “Group III” risk” value ([3]; NpH2AX(24 h) > 8) was “predicted above 100 μM”.
